According to publication PMC6692071 (Journal of medicinal chemistry, 2018):
Entries after “also recorded” stand apart in the source; their conditions may differ.

What was measured:
human δ opioid receptor [1] = molecular target: T1, human δ opioid receptor (Homo sapiens, UniProt P41143); details: mean ± SEM; cited from earlier work
human δ opioid receptor [2] = molecular target: T1, human δ opioid receptor; experiment: biochemical
[3] = rat PK studies
human κ opioid receptor = human κ opioid receptor (Homo sapiens, UniProt P41145); details: mean ± SEM; cited from earlier work
human κ opioid receptor, sequence (P41145 whole entry): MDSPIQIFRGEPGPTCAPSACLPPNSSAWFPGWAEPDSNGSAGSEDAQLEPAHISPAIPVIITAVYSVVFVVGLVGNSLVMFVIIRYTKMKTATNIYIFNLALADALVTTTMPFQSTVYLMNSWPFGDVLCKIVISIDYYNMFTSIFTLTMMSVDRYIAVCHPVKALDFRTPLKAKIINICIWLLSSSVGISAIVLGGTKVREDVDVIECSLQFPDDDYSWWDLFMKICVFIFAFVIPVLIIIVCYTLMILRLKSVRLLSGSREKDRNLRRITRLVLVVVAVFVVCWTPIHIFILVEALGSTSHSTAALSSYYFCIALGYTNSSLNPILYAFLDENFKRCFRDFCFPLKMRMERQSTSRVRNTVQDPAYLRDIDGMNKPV

T1 sequence (P41143 whole entry): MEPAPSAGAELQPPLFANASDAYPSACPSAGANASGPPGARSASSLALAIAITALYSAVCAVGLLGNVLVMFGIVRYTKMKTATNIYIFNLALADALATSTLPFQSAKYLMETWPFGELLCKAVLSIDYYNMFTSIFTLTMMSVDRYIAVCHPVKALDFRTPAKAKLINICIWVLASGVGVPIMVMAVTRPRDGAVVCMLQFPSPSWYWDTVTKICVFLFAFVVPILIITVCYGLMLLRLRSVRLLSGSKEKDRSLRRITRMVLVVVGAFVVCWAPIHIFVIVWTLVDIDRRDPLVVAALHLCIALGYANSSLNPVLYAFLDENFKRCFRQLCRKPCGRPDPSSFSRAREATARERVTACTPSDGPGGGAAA

CC1CCN(C[C@@H](NC(=O)[C@H]2Cc3ccc(O)cc3CN2)C(C)C)CC1 [4-MePDTic (43)]
Ke δ, DPDPE (human δ opioid receptor [1]): >3000 nM

CC(C)[C@@H](CC1CCCCC1)NC(=O)[C@H]1Cc2ccc(O)cc2CN1 [Compound 1]
Ke δ, DPDPE (human δ opioid receptor [1]): 640 ± 170 nM

CC(C)[C@@H](CC1CCCCC1)NC(=O)[C@@H]1Cc2ccc(O)cc2CN1 [Compound 3, (3S)-N-[(1R)-1-(Cyclohexylmethyl)-2-methylpropyl]-7-hy-droxy-1,2,3,4-tetrahydroisoquinoline-3-carboxamide]
Kb (human δ opioid receptor [2]): > 3 µM

CC(C)[C@H](CC1CCCCC1)NC(=O)[C@H]1Cc2ccc(O)cc2CN1 [Compound 4, (3R)-N-[(1S)-1-(Cyclohexylmethyl)-2-methylpropyl]-7-hydroxy-1,2,3,4-tetrahydroisoquinoline-3-carboxamide]
Kb (human δ opioid receptor [2]): > 3 µM

CC(C)[C@H](CC1CCCCC1)NC(=O)[C@@H]1Cc2ccc(O)cc2CN1 [Compound 5, (3S)-N-[(1S)-1-(Cyclohexylmethyl)-2-methylpropyl]-7-hydroxy-1,2,3,4-tetrahydroisoquinoline-3-carboxamide]
Kb (human δ opioid receptor [2]): > 3 µM

CC(C)[C@@H](CC1CCCCC1)NC(=O)[C@H]1Cc2ccc(C(N)=O)cc2CN1 [Compound 9, (3R)-N^3-[(1R)-1-(Cyclohexylmethyl)-2-methylpropyl]-1,2,3,4-tetrahydroisoquinoline-3,7-dicarboxamide]
brain penetration [3]: brain penetration

CC(C)[C@@H](CC1CCCC1)NC(=O)[C@H]1Cc2ccc(O)cc2CN1 [Compound 13, (3R)-N-[(1R)-1-(Cyclopentylmethyl)-2-methylpropyl]-7-hydroxy-1,2,3,4-tetrahydroisoquinoline-3-carboxamide]
brain penetration [3]: brain penetration; also recorded: crossed the blood–brain barrier; also recorded: penetrate the brain

CC(C)[C@@H](CN1CCCCC1)NC(=O)[C@H]1Cc2ccc(O)cc2CN1 [Compound 42, (3R)-7-hydroxy-N-[(1S)-2-methyl-1-(piperidin-1-ylmethyl)propyl]-1,2,3,4-tetrahydroisoquinoline-3-carboxamide]
Ke δ, DPDPE (human δ opioid receptor [1]): >3000 nM

CC(C)[C@@H](CN1CC[C@@](C)(c2cccc(O)c2)[C@@H](C)C1)NC(=O)[C@H]1Cc2ccc(O)cc2CN1 [JDTic, (3R)-1,2,3,4-tetrahydro-7-hydroxy-N-[(1S)-1-[[(3R,4R)-4-(3-hydroxy-phenyl)-3,4-dimethyl-1-piperidinyl]methyl]-2-methylpropyl]-3-iso-quinolinecarboxamide]
Ke κ, U69,593 (human κ opioid receptor): 0.02 ± 0.01 nM
